Laboratory results as given in patent US6476026B1, “Compounds and compositions as protease inhibitors” (Axys Pharmaceuticals, Inc., priority 1999, dated 2002).

melting point: 135 to 136 °C
SMILES: N#CCNC(=O)[C@H]1CCCN1C(=O)OCc1ccccc1 [Compound 50, benzyl 2R-cyanomethylcarbamoylpyrrolidine-1-carboxylate]
